Activity calls are given as the source filed them.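 How the source made its calls: active means IC50 against TDP2 at or below a set limit; inactive means IC50 above that limit.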
Target: Tyrosyl-DNA phosphodiesterase 2 (Homo sapiens) (UniProt O95551)
Experiment: human TDP2 enzyme inhibitors, dose response, biochemical, epi absorbance, IC50 (AID 743297)
Conditions: recombinant TDP2, T5PNP hydrolysis, absorbance 415 nm

Sequence of Tyrosyl-DNA phosphodiesterase 2 (Homo sapiens) (O95551 whole entry, looked up): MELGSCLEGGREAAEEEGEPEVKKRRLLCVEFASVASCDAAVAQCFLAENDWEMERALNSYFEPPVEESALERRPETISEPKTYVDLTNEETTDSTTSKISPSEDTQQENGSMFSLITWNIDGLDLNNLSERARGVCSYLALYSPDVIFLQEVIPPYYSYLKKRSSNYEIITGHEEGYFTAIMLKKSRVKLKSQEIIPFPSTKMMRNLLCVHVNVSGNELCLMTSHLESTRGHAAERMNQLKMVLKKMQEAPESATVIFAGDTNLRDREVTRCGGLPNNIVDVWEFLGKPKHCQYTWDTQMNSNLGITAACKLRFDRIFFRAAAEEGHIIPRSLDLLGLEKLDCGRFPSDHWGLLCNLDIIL

Q: Which IC50 does the source give for `C[c-]1[c-](C)[c-](C)[c-](C)[c-]1C.[Fe].c1cc2nccc(N3CCCC3)[c-]2c1` (stereo unspecified) here?
A: inactive

From PubChem BioAssay AID743297 (The Scripps Research Institute Molecular Screening Center, 2014)
